Laboratory results taken from US20230180804A1, “FLAVOR COMPOSITION, AND FOOD AND BEVERAGE” (TAKASAGO INTERNATIONAL CORPORATION, priority 2020, published 2023).

Legend:
[1] = Sensory evaluation of p-cresol odor masking in p-cresol-containing citrus-flavored beverage; conditions: for p-Cresol Odor Intensity: beverage with 50 ppb p-cresol, average score of 7 panelists, scale 0-4; for concentration at which the compound masks the p-cresol odor and does not affect the citrus flavor, lower limit / concentration at which the compound masks the p-cresol odor and does not affect the citrus flavor, upper limit: citrus-flavored beverage with 50 ppb p-cresol
Protocol: To 2 g of lemon flavor obtained by making lemon oil into an essence, purified water was added to adjust the total amount to 1000 ml. To this citrus-flavored beverage, p-cresol adjusted to a concentration of 1% by mass with 95% ethanol was added to 50 ppb in the citrus-flavored beverage. To this p-cresol-containing citrus-flavored beverage, 1-oxacycloheptadecan-7-en-2-one was added at the concentrations presented in Table 1 to confirm the p-cresol odor intensity (masking effect) and the influence on the citrus flavor of each sample.
For the test, seven skilled panelists were selected to perform sensory evaluation. The p-cresol odor intensity of the p-cresol-containing citrus-flavored beverage without added l-oxacycloheptadecan-7-en-2-one was determined as “Rating: 4,” and the p-cresol odor intensity of the p-cresol-free citrus-flavored beverage was determined as “Rating: 0,” and the p-cresol odor intensity (masking effect) of each sample was relatively evaluated according to the following evaluation criteria.
In addition, the influence of the citrus-flavored beverage on the citrus flavor was evaluated absolutely according to the following evaluation criteria for the presence or absence of off- flavor other than p-cresol odor and citrus flavor (Off-Flavor Intensity).
The results are as in Table 1, presenting the average score of the evaluation results for each panelist.

olfactory receptor OR9Q2 = molecular target: T1, olfactory receptor OR9Q2 (Homo sapiens, UniProt Q8NGE9); assay: OR9Q2 response inhibitory effect for p-cresol, luciferase reporter gene assay; type: cell-based; conditions: p-cresol 100 µM mixed with various concentrations of compound; cells expressing OR9Q2; ratio of Fold Increase value (FIGS. 1 to 11)
T1 construct: 20 N-terminal amino acid residues of bovine rhodopsin (Rho tag); expressed in transfected cells; host or cells: HEK293T
T1 sequence (Q8NGE9 1-314): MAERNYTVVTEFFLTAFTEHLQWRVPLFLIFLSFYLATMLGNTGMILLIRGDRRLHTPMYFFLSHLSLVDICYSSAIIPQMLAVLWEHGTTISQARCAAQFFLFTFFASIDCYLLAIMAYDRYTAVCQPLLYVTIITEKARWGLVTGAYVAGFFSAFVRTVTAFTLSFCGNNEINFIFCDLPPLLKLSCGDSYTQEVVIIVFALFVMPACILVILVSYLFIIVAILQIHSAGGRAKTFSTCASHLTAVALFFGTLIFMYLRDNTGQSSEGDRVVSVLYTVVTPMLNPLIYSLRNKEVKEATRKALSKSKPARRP
Protocol: The human olfactory receptor gene was obtained by cloning from Human Genomic DNA: Female (Promega) by PCR method based on the sequence information registered in GenBank. The 20 N-terminal amino acid residues of bovine rhodopsin were incorporated into the pME18S vector, and the obtained human olfactory receptor gene was incorporated downstream thereof to obtain a human olfactory receptor gene expression vector.
In 10 µL of Opti-MEM I (gibco), 0.05 µg of human olfactory receptor gene expression vector, 0.01 µg of RTP1S vector, 0.01 µg firefly luciferase vector pGL4.29 (Promega) containing cAMP response element promoter, and 0.005 µg of Renilla luciferase vector pGL4.74 (Promega) containing thymidine kinase promoter were dissolved to prepare a gene solution (for one well). HEK293T cells were seeded at 100 µL each in a 96-well plate (Biocoat, Coming) at the number of cells reaching confluence after 24 hours, and a gene solution was added to each well by the lipofection method according to the usage of Lipofectamine 3000 to introduce genes into the cells, and the cells were cultured at 37° C. in a 5% carbon dioxide atmosphere for 24 hours.
After removing the culture medium, the resultant was prepared with CD293 (gibco) medium ([…] added) so as to have a concentration for measuring the aroma substance to be tested, 50 µL of which was added each and stimulated for 3 hours, and then luciferase activity was measured according to the method of using the Dual-Luciferase Reporter Assay System (Promega). The response intensity of the olfactory receptor polypeptide was expressed as a Fold Increase value obtained by dividing the luciferase activity produced by stimulating the aroma substance by the luciferase activity produced in the test system containing no aroma substance.
p-Cresol at 100 µM was mixed with various concentrations of 1-oxacycloheptadecan-7-en-2-one, 1-oxacycloheptadecan-8-en-2-one, isoambrettolide, pentalide, muscone, civetone, 8-2-decenolactone, cinnamic aldehyde, […], sclareolide, and ethyl maltol, and receptor responses were measured in cells expressing OR9Q2. The ratio of the Fold Increase value in the test in which each compound was mixed was calculated, where the Fold Increase value in the test in none of these compounds was mixed was set to 100. FIGS. 1 to 11 present the results.

[2] = Sensory evaluation of p-cresol odor masking in p-cresol-containing citrus-flavored confectionery (tablet); conditions: for p-Cresol Odor Intensity: tablet with 200 ppb p-cresol, average score of 6 panelists, scale 0-4
Protocol: Lemon cold-pressed oil was added to the tablet having the composition presented in Table A at a concentration of 1 % by mass, and medium chain fatty acid triglycerides (MCT) was used to adjust p-cresol to a concentration of 0.1%, which was further added so as to reach 200 ppb in the citrus flavored confectionery. To this p-cresol-containing citrus-flavored confectionery, 1-oxacycloheptadecan-7-en-2-one was added at the concentrations presented in Table 12, and then tableting was performed to confirm the p-cresol odor intensity (masking effect) and the influence on the citrus flavor of each sample.
Six skilled panelists were selected to perform the same sensory evaluation as in Example 1. The results are as in Table 12, presenting the average score of the evaluation results for each panelist.

[3] = citrus-flavored confectionery (tablet) with 200 ppb p-cresol

Row | Compound | p-Cresol Odor Intensity ([1]; 1 ppb added) [points] | p-Cresol Odor Intensity ([1]; 1 ppm added) [points] | p-Cresol Odor Intensity ([1]; 1 ppt added) [points] | p-Cresol Odor Intensity ([1]; 10 ppb added) [points] | p-Cresol Odor Intensity ([1]; 10 ppm added) [points] | p-Cresol Odor Intensity ([1]; 10 ppt added) [points] | p-Cresol Odor Intensity ([1]; 100 ppb added) [points] | p-Cresol Odor Intensity ([1]; 100 ppt added) [points] | concentration at which the compound masks the p-cresol odor and does not affect the citrus flavor, lower limit [1] [ppt] | concentration at which the compound masks the p-cresol odor and does not affect the citrus flavor, upper limit [1] | effect of suppressing the response of OR9Q2 to p-cresol (olfactory receptor OR9Q2) | p-Cresol Odor Intensity ([1]; 100 ppm added) [points] | p-Cresol Odor Intensity ([1]; 0.01 ppt added) [points] | p-Cresol Odor Intensity ([1]; 0.1 ppt added) [points] | also measured
1 | CCCCCC1CC=CC(=O)O1 (stereo not shown) [δ-2-Decenolactone, δ-2-decenolactone] | 2.3 | 1.3 | 3.9 | 2.0 | 0.7 | 2.7 | 1.6 | 2.4 | ≥ 10 | ≤ 100 ppb | suppressing the response of OR9Q2 to p-cresol in a concentration-dependent manner |  |  |  | 
2 | CCc1occc(=O)c1O [Ethyl Maltol, ethyl maltol] | 2.3 | 1.4 |  | 2.0 | 1.3 | 3.7 | 1.6 | 2.7 | ≥ 100 | ≤ 10 ppm | suppressing the response of OR9Q2 to p-cresol in a concentration-dependent manner | 0.4 |  |  | 
3 | C=C1CC[C@H]2O[C@]2(C)CC[C@@H]2[C@@H]1CC2(C)C [β-caryophyllene Oxide, β-caryophyllene oxide] | 2.1 | 1.0 |  | 1.7 | 1.0 | 3.9 | 1.6 | 2.6 | ≥ 100 | ≤ 1 ppm | suppressing the response of OR9Q2 to p-cresol in a concentration-dependent manner | 0.4 |  |  | 
4 | O=C1CCCCCCC/C=C\CCCCCCO1 [Isoambrettolide, isoambrettolide] | 1.3 |  | 2.4 | 1.3 |  | 2.1 | 0.9 | 1.6 | ≥ 0.1 | ≤ 1 ppb | suppressing the response of OR9Q2 to p-cresol in a concentration-dependent manner |  | 3.7 | 2.7 | p-Cresol Odor Intensity ([2]; 4 ppb added): 2.5 points; p-Cresol Odor Intensity ([2]; 40 ppb added): 1.8 points; p-Cresol Odor Intensity ([2]; 40 ppt added): 3.0 points; p-Cresol Odor Intensity ([2]; 400 ppb added): 1.5 points; p-Cresol Odor Intensity ([2]; 400 ppt added): 2.7 points; concentration at which the compound masks the p-cresol odor and does not affect the citrus flavor, lower limit [2, 3]: ≥ 400 ppt; concentration at which the compound masks the p-cresol odor and does not affect the citrus flavor, upper limit [2, 3]: ≤ 400 ppb
5 | CC1(C)CCC[C@]2(C)[C@H]3CC(=O)O[C@]3(C)CC[C@@H]12 [Sclareolide, sclareolide] | 2.1 | 1.0 |  | 1.9 | 0.4 | 3.6 | 1.1 | 2.6 | ≥ 100 | ≤ 1 ppm | suppressing the response of OR9Q2 to p-cresol in a concentration-dependent manner |  |  |  | 
6 | C[C@@H]1CCCCCCCCCCCCC(=O)C1 [Muscone, muscone] | 0.9 |  | 2.1 | 0.4 |  | 1.9 | 0.3 | 1.7 | ≥ 0.01 | ≤ 1 ppb | suppressing the response of OR9Q2 to p-cresol in a concentration-dependent manner |  | 2.7 | 2.4 | p-Cresol Odor Intensity ([1]; 0.001 ppt added): 3.7 points
